Results: patent US20150307532A1, “THIENOPYRIMIDINE INHIBITORS OF […] AND/OR […] PYROPHOSPHATE SYNTHASE” (THE ROYAL INSTITUTION FOR THE ADVANCEMENT OF …, priority 2012, published 2015)
Where two headings read alike, the source gives them in different places. One block for each compound: values may come before it.

Assays:
human recombinant FPPS = target: T1, human recombinant FPPS (Homo sapiens, UniProt P14324)
T1 sequence (P14324 1-419): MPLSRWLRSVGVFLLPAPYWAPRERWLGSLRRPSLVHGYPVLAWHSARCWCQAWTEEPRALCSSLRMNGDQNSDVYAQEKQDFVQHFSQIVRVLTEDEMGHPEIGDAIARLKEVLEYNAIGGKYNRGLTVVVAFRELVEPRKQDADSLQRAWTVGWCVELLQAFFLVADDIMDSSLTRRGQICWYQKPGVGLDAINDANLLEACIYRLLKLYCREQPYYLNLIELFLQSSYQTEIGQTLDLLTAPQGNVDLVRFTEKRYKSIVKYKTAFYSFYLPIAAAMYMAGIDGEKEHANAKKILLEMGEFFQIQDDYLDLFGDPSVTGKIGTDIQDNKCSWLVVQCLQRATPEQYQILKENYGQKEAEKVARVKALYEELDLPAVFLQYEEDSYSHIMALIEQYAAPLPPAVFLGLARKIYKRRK

[1] = system: phosphorylated Tau protein; assay: Phospho-Tau bioassay (INNOTEST PHOSPHO-TAU(181P) ELISA) in human immortalized neurons; type: cell-based; conditions: compound 100 nM; for P-Tau: 24 hours, SH-SY5Y cell homogenate; for Ratio P/T: P-Tau/T-Tau
total Tau (T-Tau) = assay: Total Tau ELISA (Innotest Total Tau, hTau assay) in human immortalized neurons; type: cell-based; conditions: compound 100 nM, 24 hours, SH-SY5Y cell homogenate
Method: (§1) The commercially available INNOTEST® PHOSPHO-TAU(181P) solid-phase enzyme immunoassay was used. In this assay, the phosphorylated Tau protein or fragments are captured by a first monoclonal human specific antibody, HT7 (IgG1). Human immortalized neurons were treated with various compounds at […] and incubated with biotinylated AT270 (IgG1) monoclonal. This antigen-antibody complex is then detected by a peroxidase-labeled streptavidin. After addition of substrate working solution, samples develop a color. The color intensity is a measure for the amount of phosphorylated Tau protein in the sample. This assay has been standardized in numerous research laboratories (for examples see Vanderstichele, H. et al. Alzheimer's & Dementia 2012, 8, 65-73; Zimmermann, R. et al. Journal of Alzheimer's Diseases 2011, 25, 739-745; Blennow, K. et al. Molecular and Chemical Neuropathology 1995, 26, 231-245). Human neuroblastomas SH-SY5Y cell line were used and purchased at the ATCC under the label CRL2266. All compounds were tested in three fixed concentrations at 100 nM, 1 μM and 100 μM in duplicates. We used the 6 well culture plates to grown a significant density of neurons (330,000 cells/well). Cells were grown to 80% confluence in MEM-F12 media with 10% fetal bovine serum, the exposed for 24 hours to the different inhibitors. After one day, the supernatant was removed (and saved at −20° C.). The cell are washed repeatedly in PBS buffer and saved at −80° C. ELISA assays were performed on neuronal cell homogenates using a standardized assay developed by INNOGENETICS called Innotest Total Tau also refers to as the hTau assay and Innotest phospho-Tau (P181). Assays were performed as per manufacturer protocol. The concentration units are in pg of P-Tau per μg of total protein in the cell homogenate. […]; compounds which cause stress or damage to the neurons stimulate the production of P-Tau protein. Lactate dehydrogenase (LDH) activity was measured using a commercial kit; the maximum toxicity was based on % lactic acid dehydrogenases activity in the medium; the control was set at zero.

[2] = system: Human neuroblastomas SH-SY5Y cell line; assay: Lactate dehydrogenase (LDH) activity / toxicity in neurons; type: cell-based
Method: as §1

[3] = read-out: IC50 (μM) in hFPPS Method 2, ~1 nM hFPPS, 0.2 μM GPP and IPP

Structure (SMILES): O=P(O)(O)C(Nc1ncnc2sc(-c3ccc(C4CC4)cc3)cc12)P(=O)(O)O [Example 7-1, (((6-(4-cyclopropylphenyl)thieno[2,3-d]pyrimidin-4-yl)amino)methylene)diphosphonic acid]
IC50 (human recombinant FPPS): 0.036 µM

Structure (SMILES): O=P(O)(O)C(Nc1ncnc2sc(-c3ccc(OC4CC4)cc3)cc12)P(=O)(O)O [Example 11-1, (((6-(4-cyclopropoxyphenyl)thieno[2,3-d]pyrimidin-4-yl)amino)methylene)diphosphonic acid]
P-Tau [1]: 0.30 pg of P-Tau per μg of total protein | Ratio P/T [1]: 0.007 | T-Tau (total Tau (T-Tau)): 31 pg/µg protein | LDH ([2]; human, 24 h, 100 nM): 0%

Structure (SMILES): O=P(O)(O)C(Nc1ncnc2sc(-c3ccc(C4CC4(F)F)cc3)cc12)P(=O)(O)O (stereo not drawn) [Example 13-1, (((6-(4-(2,2-difluorocyclopropyl)phenyl)thieno[2,3-d]pyrimidin-4-yl)amino)methylene)diphosphonic acid]
IC50 (human recombinant FPPS; [3]): 0.011 µM

Structure (SMILES): O=P(O)(O)CNc1ncnc2sc(-c3ccc(C4CC4)cc3)cc12 [Example 16-1, (((6-(4-cyclopropylphenyl)thieno[2,3-d]pyrimidin-4-yl)amino)methyl)phosphonic acid]
P-Tau [1]: 0.35 pg of P-Tau per μg of total protein | Ratio P/T [1]: 0.007 | T-Tau (total Tau (T-Tau)): 47 pg/µg protein | IC50 (human recombinant FPPS): 29 µM | LDH ([2]; human, 24 h, 100 nM): 7%

Structure (SMILES): Cc1ccc(-c2sc3ncnc(NCP(=O)(O)O)c3c2N)cc1 [Example 21-1, (((5-amino-6-(p-tolyl)thieno[2,3-d]pyrimidin-4-yl)amino)methyl)phosphonic acid]
IC50 (human recombinant FPPS): 2.7 µM

Structure (SMILES): O=C(O)Cn1c(C(=O)O)cc2ccc3ccccc3c21 [Inhibitor 1]
P-Tau [1]: 0.30 pg of P-Tau per μg of total protein | T-Tau (total Tau (T-Tau)): 65 pg/µg protein | LDH ([2]; human, 24 h, 100 nM): 3%

Structure (SMILES): O=P(O)(O)C(O)(Cc1cccnc1)P(=O)(O)O [Risedronic acid]
P-Tau [1]: 0.17 pg of P-Tau per μg of total protein | T-Tau (total Tau (T-Tau)): 38 pg/µg protein | Toxicity ([2]; compound 100 nM, based on LDH): high | LDH ([2]; compound 100 nM, % lactic acid dehydrogenases activity in the medium, control set at zero): 60% | toxicity to neurons ([2]; human immortalized neurons): highly toxic

Structure (SMILES): O=P(O)(O)C(O)(Cn1ccnc1)P(=O)(O)O [Zoledronic acid]
P-Tau [1]: 0.19 pg of P-Tau per μg of total protein | T-Tau (total Tau (T-Tau)): 34 pg/µg protein | toxicity to neurons [2]: highly toxic | LDH ([2]; human, 24 h, 100 nM): 60%

The remaining lines, values ahead:

IC50 (human recombinant FPPS; [3]): 0.022 µM
Structure (SMILES): Cc1ccc(-c2cc3c(NC(P(=O)(O)O)P(=O)(O)O)ncnc3s2)cc1 [Example 5-1]

IC50 (human recombinant FPPS; [3]): 0.021 µM
Structure (SMILES): O=P(O)(O)C(Nc1ncnc2sc(-c3ccc(C(F)(F)F)cc3)cc12)P(=O)(O)O [Example 6-1, (((6-(4-(trifluoromethyl)phenyl)thieno[2,3-d]pyrimidin-4-yl)amino)methylene)diphosphonic acid]

IC50 (human recombinant FPPS; [3]): 0.015 µM
Structure (SMILES): COc1ccc(-c2cc3c(NC(P(=O)(O)O)P(=O)(O)O)ncnc3s2)cc1 [Example 8-1, (((6-(4-methoxyphenyl)thieno[2,3-d]pyrimidin-4-yl)amino)methylene)diphosphonic acid]

IC50 (human recombinant FPPS; [3]): 0.063 µM
Structure (SMILES): O=P(O)(O)C(Nc1ncnc2sc(-c3ccc4ccccc4c3)cc12)P(=O)(O)O [Example 10-1]

IC50 (human recombinant FPPS; [3]): 4.5 µM
Structure (SMILES): Cc1ccc(-c2cc3c(NCP(=O)(O)O)ncnc3s2)cc1 [Example 18-1, (((6-(p-tolyl)thieno[2,3-d]pyrimidin-4-yl)amino)methyl)phosphonic acid]

IC50 (human recombinant FPPS): 40 µM
Structure (SMILES): Cc1ccc(-c2cc3c(N[C@H](Cc4ccccc4)C(=O)O)ncnc3s2)cc1 [Example 33-1]

IC50 (human recombinant FPPS): 4.2 µM
Structure (SMILES): Cc1ccc(-c2cc3c(NC(c4ccccc4)P(=O)(O)O)ncnc3s2)cc1 (stereo not drawn) [Example 36-1, (phenyl((6-(p-tolyl)thieno[2,3-d]pyrimidin-4-yl)amino)methyl)phosphonic acid]

IC50 (human recombinant FPPS): 1.3 µM
Structure (SMILES): Cc1ccc(-c2cc3c(NC(c4ccccc4)P(=O)(O)O)ncnc3s2)cc1Cl (stereo not drawn) [Example 37-1, (((6-(3-chloro-4-methylphenyl)thieno[2,3-d]pyrimidin-4-yl)amino)(phenyl)methyl)phosphonic acid]

IC50 (human recombinant FPPS): 10 µM
Structure (SMILES): Cc1ccc(-c2sc3ncnc(NCP(=O)(O)O)c3c2N)cc1Cl [Example 41-1]
